According to US7915238B2, “Immunomodulatory compounds and methods of use thereof” (Eisai R & D Management Co., Ltd., priority 1999, dated 2011):
Read-outs that look alike come from different tables or passages of the source.

Legend:
normal mouse splenocytes = assay: Cytokine release from murine splenocytes; type: cell-based, C57BL6 mice; conditions: 24 hours culture with test compound
Description: The ability of compounds to stimulate cytokine release from splenocytes can be assessed in a mouse model. Spleen cells harvested from C57BL6 mice are cultured for 24 hours in RPMI 1640 cell culture medium containing 5% FBS, 1 mM sodium pyruvate, 2 mM L-glutamine, 100 U/ml penicillin/streptomycin and 50 μM beta-mercaptoethanol, various concentrations of test compound for 20-24 hours, after which the cell culture supernatant is tested for the presence of cytokines.
Spleen cells harvested from mice were cultured for 24 house with test compound and the supernatant was tested for release of cytokines.

THP-1 cells = assay: TNF-alpha promoter secreted alkaline phosphatase (TNF-PLAP) reporter in THP-1 cells; type: cell-based, human
Description: Similar results can be obtained when compounds of the invention are tested in a cell-culture model. In this assay, compounds of the invention are tested for their ability to stimulate secretion of alkaline phosphatase from THP-1 cells that have been transfected with the gene for secreted alkaline phosphatase under the control of the TNF-alpha promoter, as described in detail in Goto et al., Molecular Pharmacology 49; 860-873 (1996). In this assay, however, the effects of removing serum^1—a condition that may more-likely mimic a subcutaneous environment—can be evaluated. As shown in FIG. 2 and described in Table 1, results from these assays indicate that compounds of the invention stimulate induction of genes under the control of the TNF-alpha promoter when added to cells in the absence as well as the presence of serum. ^1 This is important to determine if serum components such as lipopolysaccharide binding protein are necessary for drug activity.

Human Whole Blood = assay: Cytokine release in human whole blood (ELISA); type: cell-based; conditions: for TNF-alpha release in whole blood at 10 μM compound (% of 10 ng/ml LPS response): compounds tested at 10 μM, compared to 10 ng/ml LPS, 3-hour incubation; for EC50: whole blood, vs. % of LPS at 10 ng/ml, read-out: WB ED50 vs LPS@ 10 ng/ml
Description: The most readily available human system to test compound activity on monocytes/macrophages is in whole blood. Various concentrations of compounds of the invention were added as 10× stocks in 50 μl of Ca^++, Mg^++-free Hank's balanced salt solution (HBSS) followed by 50 μl of HBSS into 400 μl of heparinized whole blood obtained from normal volunteers (18-51 years old; 110-230 lb.) into the wells of plastic assay plates, for a total volume of 500 μl/well (final concentration of whole blood was 80%). After a 3-hour incubation with gentle shaking at 37° C. in a 5% CO2 atmosphere, the assay plates were centrifuged at 1000×g for 10 min. at 4° C. and plasma was drawn off and frozen at −80° C. Plasma samples were analyzed for TNF-alpha, IL-10, and IL-12 by ELISA (Genzyme Corp., Cambridge, Mass.). Each assay point was tested in triplicate.
This stimulatory activity can be compared to that of 10 ng/ml endotoxin (or LPS) present in similar incubations in the same assay.

Row | Compound | TNF-alpha release in whole blood at 10 μM compound (% of 10 ng/ml LPS response) (Human Whole Blood) | EC50 (Human Whole Blood) [nM] | also measured
1 | CCCCCC/C=C\CCCC(=O)O[C@H](CCCCCCC)CCOCC(COP(=O)([O-])OCCNC(=O)CC(=O)NCCOP(=O)([O-])OCC(COCC[C@@H](CCCCCCC)OC(=O)CCC/C=C\CCCCCC)NC(=O)CC(=O)CCCCCCCCCCC)NC(=O)CC(=O)CCCCCCCCCCC.[Na+].[Na+] (stereo partly shown) [ER 113651] | – | – | IL-10 release from splenocytes (normal mouse splenocytes): stimulated; interferon-gamma release from splenocytes (normal mouse splenocytes): stimulated
2 | CCCCCC/C=C\CCCC(=O)O[C@H](CCCCCCC)CCOCC(COP(=O)([O-])OCCNC(=O)CC(=O)NCCOP(=O)([O-])OCC(COCC[C@@H](CCCCCCC)OC(=O)CCC/C=C\CCCCCC)NC(=O)CC(=O)CCCCCCCCCCC)NC(=O)CC(=O)CCCCCCCCCCC.[Na+].[Na+] (stereo partly shown) [compound 113651] | 133 ± 4.4 (n = 4) % of LPS | 700 | THP-1 cell Stimulation (% of compound 100 at 10 μM) +serum (THP-1 cells): 215 % of compound 100 at 10 μM; THP-1 cell Stimulation (% of compound 100 at 10 μM) −serum (THP-1 cells): 254 % of compound 100 at 10 μM
3 | CCCCCC/C=C\CCCC(=O)O[C@H](CCCCCCC)CCOCC(COP(=O)([O-])OCCNC(=O)CCC(=O)NCCOP(=O)([O-])OCC(COCC[C@@H](CCCCCCC)OC(=O)CCC/C=C\CCCCCC)NC(=O)CC(=O)CCCCCCCCCCC)NC(=O)CC(=O)CCCCCCCCCCC.[Na+].[Na+] (stereo partly shown) [compound 111233] | – | – | THP-1 cell Stimulation (% of compound 100 at 10 μM) +serum (THP-1 cells): 141 % of compound 100 at 10 μM
4 | CCCCCC/C=C\CCCC(=O)O[C@H](CCCCCCC)CCOCC(COP(=O)([O-])OCCNC(=O)C(Cc1ccc(O)cc1)C(=O)NCCOP(=O)([O-])OCC(COCC[C@@H](CCCCCCC)OC(=O)CCC/C=C\CCCCCC)NC(=O)CC(=O)CCCCCCCCCCC)NC(=O)CC(=O)CCCCCCCCCCC.[Na+].[Na+] (stereo partly shown) [compound 118023] | 63 % of LPS | – | –
5 | CCCCCCCCCCCCCC(=O)N[C@H](COCC[C@H](CCCCCCC)CCCCCCCCCCCC)COP(=O)(O)OCCNC(=O)NCCOP(=O)(O)OC[C@@H](COCC[C@H](CCCCCCC)CCCCCCCCCCCC)NC(=O)CCCCCCCCCCCCC [compound 804121] | – | 460 | –
6 | CCCCCC/C=C\CCCC(=O)O[C@H](CCCCCCC)CC(=O)NC(COCC[C@H](O)CCCCCCC)COP(=O)([O-])OCCNC(=O)c1ccc(C(=O)NCCOP(=O)([O-])OCC(COCC[C@H](O)CCCCCCC)NC(=O)C[C@@H](CCCCCCC)OC(=O)CCC/C=C\CCCCCC)cc1.[Na+].[Na+] (stereo partly shown) [compound 112861] | 0 % of LPS | – | –
7 | CCCCCCCCCCCC(=O)CC(=O)N[C@H](COCC[C@@H](CCCCCCC)OC(=O)CCCCCCCCCCC)COP(=O)(O)OCCNC(=O)NCCOP(=O)(O)OC[C@H](COCC[C@@H](CCCCCCC)OC(=O)CCCCCCCCCCC)NC(=O)CC(=O)CCCCCCCCCCC [compound 804097] | – | 300 | –
8 | CCCCCCCCCCCCCC(=O)NC(COCC[C@@H](CCCCCCC)OC(=O)CCCCCCCCCCC)COP(=O)([O-])OCCNC(=O)CC(=O)NCCOP(=O)([O-])OCC(COCC[C@@H](CCCCCCC)OC(=O)CCCCCCCCCCC)NC(=O)CCCCCCCCCCCCC.[Na+].[Na+] (stereo partly shown) [compound 803056] | 151 ± 42 % of LPS | – | –
9 | CCCCCC/C=C\CCCC(=O)O[C@H](CCCCCCC)CC(=O)NC(COCC[C@H](O)CCCCCCC)COP(=O)([O-])OCCNC(=O)c1cccc(C(=O)NCCOP(=O)([O-])OCC(COCC[C@H](O)CCCCCCC)NC(=O)C[C@@H](CCCCCCC)OC(=O)CCC/C=C\CCCCCC)c1.[Na+].[Na+] (stereo partly shown) [compound 112860] | 0 % of LPS | – | –
10 | CCCCCC/C=C\CCCC(=O)O[C@H](CCCCCCC)CCOCC(COP(=O)([O-])OCCNC(=O)NCCOP(=O)([O-])OCC(COCC[C@@H](CCCCCCC)OC(=O)CCC/C=C\CCCCCC)NC(=O)CC(=O)CCCCCCCCCCC)NC(=O)CC(=O)CCCCCCCCCCC.[Na+].[Na+] (stereo partly shown) [compound 111232] | 158 % of LPS | – | THP-1 cell Stimulation (% of compound 100 at 10 μM) +serum (THP-1 cells): 155 % of compound 100 at 10 μM; THP-1 cell Stimulation (% of compound 100 at 10 μM) −serum (THP-1 cells): 225 % of compound 100 at 10 μM
11 | CCCCCC/C=C\CCCC(=O)O[C@H](CCCCCCC)CCOCC(COP(=O)([O-])OCCNC(=O)NCCOP(=O)([O-])OCC(COCC[C@@H](CCCCCCC)OC(=O)CCC/C=C\CCCCCC)NC(=O)CCCCCCCCCCCCC)NC(=O)CCCCCCCCCCCCC.[Na+].[Na+] (stereo partly shown) [ER 119328] | – | – | TNF-alpha release from blood-borne cells (Human Whole Blood; FIG. 1): stimulate blood-borne cells to release TNF-alpha
12 | CCCCCCCCCCCCCC(=O)N[C@H](COCC[C@@H](CCCCCCC)OC(=O)CCCCCCCCCCC)COP(=O)(O)OCCNC(=O)NCCOP(=O)(O)OC[C@H](COCC[C@@H](CCCCCCC)OC(=O)CCCCCCCCCCC)NC(=O)CCCCCCCCCCCCC [compound 803789] | – | 100 | –
13 | CCCCCCCCCCCCCC(=O)NC(COCCC(CCCCCCC)OCCCCCCCCCCCC)COP(=O)(O)OCCCCCCCCOP(=O)(O)OCC(COCCC(CCCCCCC)OCCCCCCCCCCCC)NC(=O)CCCCCCCCCCCCC (mixture of isomers) [compound 804596] | – | > 10000 | –
14 | CCCCCCCCCCCCCC(=O)N[C@@H](CC[N+](C)(C)CCCNC(=O)NCCC[N+](C)(C)CC[C@@H](COC(=O)C[C@@H](CCCCCCC)OC(=O)CCCCCCCCCCC)NC(=O)CCCCCCCCCCCCC)COC(=O)C[C@@H](CCCCCCC)OC(=O)CCCCCCCCCCC [compound 804947] | – | – | EC50 (Human Whole Blood; Homo sapiens): > 10000 nM
15 | CCCCCCCCCCCC(=O)NCC(=O)N[C@H](COCC[C@@H](CCCCCCC)OC(=O)CCCCCCCCCCC)COP(=O)(O)OCCNC(=O)NCCOP(=O)(O)OC[C@@H](COCC[C@@H](CCCCCCC)OC(=O)CCCCCCCCCCC)NC(=O)CNC(=O)CCCCCCCCCCC [compound 804221] | – | 2200 | –
16 | CCCCCCCCCCCCCCN[C@H](COCC[C@@H](CCCCCCC)OC(=O)CCCCCCCCCCC)COP(=O)(O)OCCNC(=O)NCCOP(=O)(O)OC[C@@H](COCC[C@@H](CCCCCCC)OC(=O)CCCCCCCCCCC)NCCCCCCCCCCCCCC [compound 804281] | – | 450 | –
17 | CCCCCC/C=C\CCCC(=O)O[C@H](CCCCCCC)CCOCC(COP(=O)([O-])OCCNC(=O)CCCCCCCCC(=O)NCCOP(=O)([O-])OCC(COCC[C@@H](CCCCCCC)OC(=O)CCC/C=C\CCCCCC)NC(=O)CC(=O)CCCCCCCCCCC)NC(=O)CC(=O)CCCCCCCCCCC.[Na+].[Na+] (stereo partly shown) [compound 111231] | – | 290 | THP-1 cell Stimulation (% of compound 100 at 10 μM) +serum (THP-1 cells): 17 % of compound 100 at 10 μM
18 | CCCCCCCCCCCCCC(=O)N[C@H](COCC[C@@H](CCCCCCC)OC(=O)CCCCCCCCCCC)COP(=O)(O)OCCNC(=O)CC(=O)NCCOP(=O)(O)OC[C@H](COCC[C@@H](CCCCCCC)OC(=O)CCCCCCCCCCC)NC(=O)CCCCCCCCCCCCC [compound 803731] | – | > 10000 | –
19 | CCCCCC/C=C\CCCC(=O)O[C@H](CCCCCCC)CC(=O)NC(COCC[C@H](O)CCCCCCC)COP(=O)([O-])OCCNC(=O)c1cc(O)cc(C(=O)NCCOP(=O)([O-])OCC(COCC[C@H](O)CCCCCCC)NC(=O)C[C@@H](CCCCCCC)OC(=O)CCC/C=C\CCCCCC)c1.[Na+].[Na+] (stereo partly shown) [compound 113635] | 0 % of LPS | – | –
20 | CCCCCC/C=C\CCCC(=O)O[C@H](CCCCCCC)CCOCC(COP(=O)([O-])OCCNC(=O)C(Cc1ccc(OCCN)cc1)C(=O)NCCOP(=O)([O-])OCC(COCC[C@@H](CCCCCCC)OC(=O)CCC/C=C\CCCCCC)NC(=O)CCCCCCCCCCCCC)NC(=O)CCCCCCCCCCCCC.[Na+].[Na+] (stereo partly shown) [compound 119522] | 129 % of LPS | – | –
21 | CCCCCCCCCCCC(=O)CC(=O)NC(COCC[C@@H](CCCCCCC)OC(=O)CCCCCCCCCCC)COP(=O)([O-])OCCNC(=O)NCCOP(=O)([O-])OCC(COCC[C@@H](CCCCCCC)OC(=O)CCCCCCCCCCC)NC(=O)CC(=O)CCCCCCCCCCC.[Na+].[Na+] (stereo partly shown) [compound 112066] | 162 % of LPS | 40 | THP-1 cell Stimulation (% of compound 100 at 10 μM) +serum (THP-1 cells): 330 % of compound 100 at 10 μM
22 | CCCCCC/C=C\CCCC(=O)O[C@H](CCCCCCC)CCOCC(COP(=O)([O-])OCCNC(=O)CC(=O)NCCOP(=O)([O-])OCC(COCC[C@@H](CCCCCCC)OC(=O)CCC/C=C\CCCCCC)NC(=O)CCCCCCCCCCC)NC(=O)CCCCCCCCCCC.[Na+].[Na+] (stereo partly shown) [compound 118999] | 105 % of LPS | – | –
